Test system: 556581-035-R-J1-PDC complex spheroid growth
Assay: Anticancer human tumor 556581-035-R-J1-PDC patient-derived ovarian carcinoma cell line growth inhibition [AhR]
Conditions: for IC50: curve of first compound; for viability, T/C: stronger effect = lower value
How it was run: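 Agents were dosed in half-log steps down from roughly clinical Cmax, or from 10 microM where Cmax was unknown, alone and with AhR antagonists. Read-out: percent test/control growth of tumor spheroids containing HUVEC and MSC stromal cells.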

[1] = second compound 0.1 µM, first compound 0.0316 µM
[2] = second compound 0.1 µM, first compound 0.1 µM
[3] = second compound 0.1 µM, first compound 0.316 µM
[4] = second compound 0.1 µM, first compound 1 µM
[5] = second compound 0.1 µM, first compound 3.16 µM
[6] = second compound 0.1 µM, first compound 10 µM
[7] = second compound 0.316 µM, first compound 0.0316 µM
[8] = second compound 0.316 µM, first compound 0.1 µM
[9] = second compound 0.316 µM, first compound 0.316 µM
[10] = second compound 0.316 µM, first compound 1 µM
[11] = second compound 0.316 µM, first compound 3.16 µM
[12] = second compound 0.316 µM, first compound 10 µM
[13] = second compound 1 µM, first compound 0.0316 µM
[14] = second compound 1 µM, first compound 0.1 µM
[15] = second compound 1 µM, first compound 0.316 µM
[16] = second compound 1 µM, first compound 1 µM
[17] = second compound 1 µM, first compound 3.16 µM
[18] = second compound 1 µM, first compound 10 µM
[19] = second compound 3.16 µM, first compound 0.0316 µM
[20] = second compound 3.16 µM, first compound 0.1 µM
[21] = second compound 3.16 µM, first compound 0.316 µM
[22] = second compound 3.16 µM, first compound 1 µM
[23] = second compound 3.16 µM, first compound 3.16 µM
[24] = second compound 3.16 µM, first compound 10 µM
[25] = second compound 10 µM, first compound 0.0316 µM
[26] = second compound 10 µM, first compound 0.1 µM
[27] = second compound 10 µM, first compound 0.316 µM
[28] = second compound 10 µM, first compound 1 µM
[29] = second compound 10 µM, first compound 3.16 µM
[30] = second compound 10 µM, first compound 10 µM
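Wherever viability, T/C is given: compound exposure lasted 7 days; 100% = DMSO vehicle control growth.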

With `CC(C)c1c(-c2ccccc2)nc2c(C#N)c[nH]n2c1=O` + Cc1ccccc1N=Nc1ccc(NC(=O)c2ccnn2C)c(C)c1 the IC50 (second compound 0.1 µM) was > 10 µM, the IC50 (second compound 0.316 µM) was > 10 µM and the IC50 (second compound 1 µM) was > 10 µM. For the same compound, the IC50 (second compound 3.16 µM) was > 10 µM, the IC50 (second compound 10 µM) was > 10 µM and the viability, T/C [1] was 106%. The viability, T/C [2] was 111%, the viability, T/C [3] was 103% and the viability, T/C [4] was 104%. It also gave a viability, T/C [5] of 97.7%, a viability, T/C [6] of 93.4% and a viability, T/C [7] of 96.7%. The viability, T/C [8] was 94.1%, the viability, T/C [9] was 107% and the viability, T/C [10] was 96.1%. It also gave a viability, T/C [11] of 85.5%, a viability, T/C [12] of 103% and a viability, T/C [13] of 110%. The viability, T/C [14] was 108%, the viability, T/C [15] was 96% and the viability, T/C [16] was 106%. The viability, T/C [17] was 106%, the viability, T/C [18] was 95.8% and the viability, T/C [19] was 95.6%. The viability, T/C [20] was 92.2%, the viability, T/C [21] was 104% and the viability, T/C [22] was 83.6%. It also gave a viability, T/C [23] of 96%, a viability, T/C [24] of 87.9% and a viability, T/C [25] of 94.7%. The viability, T/C [26] was 86.8%, the viability, T/C [27] was 80.9% and the viability, T/C [28] was 91.5%. For the same compound, the viability, T/C [29] was 84.5% and the viability, T/C [30] was 76.9%.
In the case of `CC1COCCN1c1cc(-c2ccnn2C)c2ccnc(-c3ccn[nH]3)c2n1` (stereo not given) + Cc1ccccc1N=Nc1ccc(NC(=O)c2ccnn2C)c(C)c1, the IC50 (second compound 0.1 µM) is reported as 0.894 µM, the IC50 (second compound 0.316 µM) is reported as > 1 µM and the IC50 (second compound 1 µM) is reported as > 1 µM. For the same compound, the IC50 (second compound 3.16 µM) was 0.752 µM, the IC50 (second compound 10 µM) was 0.883 µM and the viability, T/C (second compound 0.1 µM, first compound 0.00316 µM) was 104%. For the same compound, the viability, T/C (second compound 0.1 µM, first compound 0.01 µM) was 103%, the viability, T/C [1] was 101% and the viability, T/C [2] was 84.8%. It also gave a viability, T/C [3] of 61.5%, a viability, T/C [4] of 48.6% and a viability, T/C (second compound 0.316 µM, first compound 0.00316 µM) of 102%. For the same compound, the viability, T/C (second compound 0.316 µM, first compound 0.01 µM) was 119%, the viability, T/C [7] was 101% and the viability, T/C [8] was 76.8%. It also gave a viability, T/C [9] of 63.9%, a viability, T/C [10] of 51.8% and a viability, T/C (second compound 1 µM, first compound 0.00316 µM) of 99.6%. For the same compound, the viability, T/C (second compound 1 µM, first compound 0.01 µM) was 108%, the viability, T/C [13] was 99.5% and the viability, T/C [14] was 80%. For the same compound, the viability, T/C [15] was 62.6%, the viability, T/C [16] was 54.9% and the viability, T/C (second compound 3.16 µM, first compound 0.00316 µM) was 105%. It also gave a viability, T/C (second compound 3.16 µM, first compound 0.01 µM) of 103%, a viability, T/C [19] of 94.8% and a viability, T/C [20] of 72.6%. The viability, T/C [21] was 63.8%, the viability, T/C [22] was 45.4% and the viability, T/C (second compound 10 µM, first compound 0.00316 µM) was 88.9%. The viability, T/C (second compound 10 µM, first compound 0.01 µM) was 104%, the viability, T/C [25] was 85.3% and the viability, T/C [26] was 73.3%. It also gave a viability, T/C [27] of 61% and a viability, T/C [28] of 47.9%.
With `COc1ccc([C@@H](O)c2cc(-c3ncnc4cc(N5CCOCC5)ccc34)c(F)cc2Cl)nn1` + Cc1ccccc1N=Nc1ccc(NC(=O)c2ccnn2C)c(C)c1 the IC50 (second compound 0.1 µM) was 5.52 µM, the IC50 (second compound 0.316 µM) was 4.75 µM and the IC50 (second compound 1 µM) was > 10 µM. It also gave an IC50 (second compound 3.16 µM) of 5.11 µM, an IC50 (second compound 10 µM) of 4.4 µM and a viability, T/C [1] of 107%. For the same compound, the viability, T/C [2] was 104%, the viability, T/C [3] was 102% and the viability, T/C [4] was 78.2%. It also gave a viability, T/C [5] of 59.4%, a viability, T/C [6] of 41.3% and a viability, T/C [7] of 104%. The viability, T/C [8] was 97.2%, the viability, T/C [9] was 100% and the viability, T/C [10] was 78%. For the same compound, the viability, T/C [11] was 55.8%, the viability, T/C [12] was 41.2% and the viability, T/C [13] was 112%. It also gave a viability, T/C [14] of 106%, a viability, T/C [15] of 110% and a viability, T/C [16] of 75.5%. It also gave a viability, T/C [17] of 56.4%, a viability, T/C [18] of 47.1% and a viability, T/C [19] of 89.1%. It also gave a viability, T/C [20] of 95%, a viability, T/C [21] of 89.1% and a viability, T/C [22] of 74.6%. The viability, T/C [23] was 56.8%, the viability, T/C [24] was 41.5% and the viability, T/C [25] was 97.8%. The viability, T/C [26] was 93.4%, the viability, T/C [27] was 87.3% and the viability, T/C [28] was 76.9%. The viability, T/C [29] was 50.4% and the viability, T/C [30] was 44.8%.
With `O=C(C=Cn1cnc(-c2cc(C(F)(F)F)cc(C(F)(F)F)c2)n1)NNc1cnccn1` + Cc1ccccc1N=Nc1ccc(NC(=O)c2ccnn2C)c(C)c1 the IC50 (second compound 0.1 µM) was > 3 µM, the IC50 (second compound 0.316 µM) was 1.75 µM and the IC50 (second compound 1 µM) was > 3 µM. The IC50 (second compound 3.16 µM) was > 3 µM, the IC50 (second compound 10 µM) was > 3 µM and the viability, T/C (second compound 0.1 µM, first compound 0.00949 µM) was 100%. It also gave a viability, T/C (second compound 0.1 µM, first compound 0.03 µM) of 99.8%, a viability, T/C (second compound 0.1 µM, first compound 0.0949 µM) of 80.3% and a viability, T/C (second compound 0.1 µM, first compound 0.3 µM) of 78.5%. It also gave a viability, T/C (second compound 0.1 µM, first compound 0.949 µM) of 72.5%, a viability, T/C (second compound 0.1 µM, first compound 3 µM) of 54.4% and a viability, T/C (second compound 0.316 µM, first compound 0.00949 µM) of 106%. The viability, T/C (second compound 0.316 µM, first compound 0.03 µM) was 92.7%, the viability, T/C (second compound 0.316 µM, first compound 0.0949 µM) was 91% and the viability, T/C (second compound 0.316 µM, first compound 0.3 µM) was 73.3%. It also gave a viability, T/C (second compound 0.316 µM, first compound 0.949 µM) of 60.7%, a viability, T/C (second compound 0.316 µM, first compound 3 µM) of 40.8% and a viability, T/C (second compound 1 µM, first compound 0.00949 µM) of 93%. The viability, T/C (second compound 1 µM, first compound 0.03 µM) was 93.4%, the viability, T/C (second compound 1 µM, first compound 0.0949 µM) was 85.5% and the viability, T/C (second compound 1 µM, first compound 0.3 µM) was 84.4%. It also gave a viability, T/C (second compound 1 µM, first compound 0.949 µM) of 72.5%, a viability, T/C (second compound 1 µM, first compound 3 µM) of 49.7% and a viability, T/C (second compound 3.16 µM, first compound 0.00949 µM) of 80.3%. For the same compound, the viability, T/C (second compound 3.16 µM, first compound 0.03 µM) was 87.7%, the viability, T/C (second compound 3.16 µM, first compound 0.0949 µM) was 79.8% and the viability, T/C (second compound 3.16 µM, first compound 0.3 µM) was 68.4%. The viability, T/C (second compound 3.16 µM, first compound 0.949 µM) was 72.2%, the viability, T/C (second compound 3.16 µM, first compound 3 µM) was 60.4% and the viability, T/C (second compound 10 µM, first compound 0.00949 µM) was 81.1%. It also gave a viability, T/C (second compound 10 µM, first compound 0.03 µM) of 81.6%, a viability, T/C (second compound 10 µM, first compound 0.0949 µM) of 82.7% and a viability, T/C (second compound 10 µM, first compound 0.3 µM) of 82.4%. For the same compound, the viability, T/C (second compound 10 µM, first compound 0.949 µM) was 71.9% and the viability, T/C (second compound 10 µM, first compound 3 µM) was 56.9%.

— PubChem BioAssay AID1918999 (Molecular Pharmacology Branch, DTP, NCI, 2023)
